In one experiment the target is T1, Cellular ERK5 Activity (Homo sapiens, UniProt Q13164).
T1 construct: MEF2-response-element luciferase reporter (pGreenFire1)
Nature of the experiment: Inhibition of Cellular ERK5 Activity (cell-based assay, MEF2 luciferase reporter in SN12C cells). The conditions noted are these: renal cancer cell line SN12C, doxycycline-induced MEK5DD, 0.3-10000 nM, mean where repeated. The method, then:
(§1) Two assays were performed to assess the ERK5 inhibitory activity of compounds of the Examples, a cell-based assay and a cell-free biochemical assay. Where repeat measurements were taken, the value reported is a mean average.
Inhibition of Cellular ERK5 Activity
The renal cancer cell line SN12C was transduced by a lentivirus pGreenFire1 MEF2 EF1 Neo (ref TR030VA-N) from SBI using standard infection protocol. pGreenFire1 MEF2 EF1 Neo allows the expression of luciferase gene under the control of minimal promoter with MEF2 transcriptional response elements. Cells harboring the reporter construct were selected by geneticin treatment. The selected cells were then transposed by a piggyback based plasmid pCM4007 allowing the expression of constitutively activated MEK5DD under control of TREG3 promoter, a doxycycline regulated promoter. Transposed cells were selected by puromycin treatment. Upon doxycycline treatment (1 μg/ml) MEK5DD was expressed. MEK5DD activates ERK5 that phosphorylates MEF2C protein. Activated MEF2C protein can bind to its transcriptional response elements. Then the luciferase is expressed. In a 96-well plate (96F nuncleon ref137101 thermofisher), 50,000 cells were inoculated in 142.5 μl of RPMI medium containing 10% fetal calf serum, 1% glutamine, and 1 μg/ml doxycycline. After 24 hours, compounds were added in 7.5 μl culture medium (with 2% DMSO to give a final concentration of 0.1%) in order to obtain the desired concentration (0.3-10000 nM). The luciferase activity was measured using the Kit Bright Glo Luminescent Cell Assay Cat E2610 (Promega) according to the manufacturer's protocol. Luminescence was determined using 0.2 second reading/well using a Tecan SPARK. IC50 values were calculated using XLFIT5 for Microsoft Excel using method 205. The IC50 values represent the concentration of compound which inhibits the measurable luminescence signal by 50% as compared to DMSO-treated control cells.
In general terms: Reporter assays use an easily measured gene product as a stand-in for the process of interest.

The target in experiment [1] is T2, activated catalytic domain of protein ERK5 (Homo sapiens, UniProt Q13164).
T2 construct: purchased CarnaBiosciences #04-146
T2 sequence (Q13164 55-347 limits assumed): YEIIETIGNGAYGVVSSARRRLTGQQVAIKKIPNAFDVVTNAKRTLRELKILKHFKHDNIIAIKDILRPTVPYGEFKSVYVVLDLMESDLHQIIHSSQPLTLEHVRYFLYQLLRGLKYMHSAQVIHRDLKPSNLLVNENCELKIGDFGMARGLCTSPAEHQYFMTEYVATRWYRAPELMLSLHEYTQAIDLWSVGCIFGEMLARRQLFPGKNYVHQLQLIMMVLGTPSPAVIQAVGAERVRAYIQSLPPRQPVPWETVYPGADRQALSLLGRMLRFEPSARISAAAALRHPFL
Nature of the experiment: Cell-Free Assay of ERK5 Inhibition (Time-Resolved Forster Resonance Energy Transfer). In kind it is biochemical. Conditions: ERK5 4 nM, 1 mM ATP, 1 μM biotinylated 4EBP1 peptide, 30 min at 37° C.; TR-FRET; mean where repeated. The method, then: as §1
Cell-Free Assay of ERK5 Inhibition
An assay was performed to measure the capacity of each compound to inhibit ERK5 enzymatic activity. Compound potency was evaluated by Time-Resolved Forster Resonance Energy Transfer (FRET system). The activated catalytic domain of protein ERK5 (CarnaBiosciences #04-146) was mixed at 4 nM with varying concentrations of compound and incubated for 30 minutes at room temperature. A mixture of 1 mM ATP and 1 μM biotinylated synthetic peptide was added (Biosyntan GmbH). This synthetic peptide represents amino acids 30-52 of Eukaryotic translation initiation factor 4E-binding protein 1 (see, e.g., the sequence under accession No. NP_004086.1) biotinylated at the N-terminus. After 30 minutes at 37° C., the peptide phosphorylation by ERK5 was measured by addition of FRET reagents consisting of 12.5 µg/ml Streptavidin-XL665, 1 nM Anti-P-4EBP1 antibody and 300 ng/ml Anti-rabbit-K antibody. Following 90 minutes at room temperature fluorescent signals were read on the Pherastar FSX multimod detector from BMG Labtech (Exc° 340 nm, Em1 620 nm, Em2 665 nm). The IC50 values represent the concentration of compound which inhibits the measurable fluorescence signal by […] as compared to the DMSO only control.
(TR-FRET usually uses a lanthanide donor and a delayed reading to cut background.)

T1 sequence (Q13164 whole entry): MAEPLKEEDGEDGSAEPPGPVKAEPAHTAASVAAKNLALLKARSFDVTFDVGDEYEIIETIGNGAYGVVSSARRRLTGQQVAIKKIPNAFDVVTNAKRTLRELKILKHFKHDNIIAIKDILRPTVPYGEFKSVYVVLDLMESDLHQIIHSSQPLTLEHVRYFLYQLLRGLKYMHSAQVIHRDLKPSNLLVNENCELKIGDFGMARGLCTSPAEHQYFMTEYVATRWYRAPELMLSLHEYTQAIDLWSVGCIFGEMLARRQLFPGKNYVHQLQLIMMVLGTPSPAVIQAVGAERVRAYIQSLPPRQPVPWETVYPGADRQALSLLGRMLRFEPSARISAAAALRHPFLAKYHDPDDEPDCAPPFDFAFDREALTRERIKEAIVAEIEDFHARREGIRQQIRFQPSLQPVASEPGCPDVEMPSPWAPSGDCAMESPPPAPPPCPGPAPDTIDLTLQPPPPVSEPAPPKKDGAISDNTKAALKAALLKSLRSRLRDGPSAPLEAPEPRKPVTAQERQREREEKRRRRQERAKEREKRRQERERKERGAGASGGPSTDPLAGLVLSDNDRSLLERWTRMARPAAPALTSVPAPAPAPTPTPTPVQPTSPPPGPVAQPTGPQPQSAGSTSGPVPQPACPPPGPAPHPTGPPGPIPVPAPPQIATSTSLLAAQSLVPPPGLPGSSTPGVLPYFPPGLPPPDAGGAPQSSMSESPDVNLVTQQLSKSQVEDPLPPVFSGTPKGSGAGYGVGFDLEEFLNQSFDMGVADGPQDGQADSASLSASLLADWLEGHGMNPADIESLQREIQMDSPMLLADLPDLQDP

Broadly, the IC50 is the concentration that inhibits the measured activity by half. Low readings indicate greater potency, high ones weaker potency. As to `O=C(c1ccc(OC(F)(F)F)cc1)N1CCC(c2c[nH]c3ncc(N4CCC(F)(F)CC4)nc23)CC1` [Example 41, [4-[2-(4,4-difluoro-1-piperidyl)-5H-pyrrolo[2,3-b]pyrazin-7-yl]-1-piperidyl]-[4-(trifluoromethoxy)phenyl]methanone], the IC50 is 308 nM at Cellular ERK5 Activity and more than 30000 nM in experiment [1].
In the case of `O=C(c1ccc(C(O)(C(F)(F)F)C(F)(F)F)cc1)N1CCC(c2c[nH]c3ncc(C4CCOCC4)nc23)CC1` [Example 42, [4-(2-tetrahydropyran-4-yl-5H-pyrrolo[2,3-b]pyrazin-7-yl)-1-piperidyl]-[4-[2,2,2-trifluoro-1-hydroxy-1-(trifluoromethyl)ethyl]phenyl]methanone], the IC50 is 480 nM at Cellular ERK5 Activity and more than 30000 nM in experiment [1].
The like results for `Nc1cc(OC(F)(F)F)ccc1C(=O)N1CCC(c2c[nH]c3ncc(OC4COC4)nc23)CC1` [Example 44, [2-amino-4-(trifluoromethoxy)phenyl]-[4-[2-(oxetan-3-yloxy)-5H-pyrrolo[2,3-b]pyrazin-7-yl]-1-piperidyl]methanone] were, in that order, 272 nM and 639 nM.

Source of the values: patent US20260308157A1, “Pyrrolopyrazine Compounds, Preparation Thereof and Therapeutic Uses Thereof” (Sanofi, priority 2023, published 2026).
